In assay [1] the test system is human glioblastoma cell lines U-87MG or U-373MG, Kaposi sarcoma cell lines KSY-1 or KS-SLK, malignant melanoma cell line MV3 or BLM, medulloblastoma cell line …. As to the kind of experiment: Proliferation assay on cell cultures (Example 3). The assay is classed as cell-based. The note with it: for anti-proliferative effects in tumor cells: cell lines of Example 3 treated with the substance; for anti-proliferative effect compared with Cetrorelix only: given additionally as a second GnRH antagonist. On the procedure: A human cell line, such as the well known human glioblastoma cell lines U-87MG or U-373MG (Pinski et al., supra), or a human cell line such as the well known Kaposi sarcoma cell lines KSY-1 or KS-SLK (Parkash et al., 1996, New England Journal of Medicine, 335, 17, 1261-1269), or a human cell line such as the well known human malignant melanoma cell line MV3 or BLM (Goldbrunner, R. H., et al., 1996, Anticancer Research 16 (6B), 3679-87), or a human medulloblastoma cell line such as the well known cell line Daoy or D283 MED (Stockhammer et al., 1995, J. Neurosurgery, 83, 672-681), or human meningeoma cell cultures (Boyle-Wash, E., et al., 1995, Journal of Endocrinology, 145, 155-161), are cultured as previously described for the above-mentioned cell lines and then treated with a concentration of the GnRH agonist Triptorelin®, GnRH antagonist SB-75 (Cetrorelix®) or GnRH antagonist Ramorelix®. […]
In another embodiment, the above-mentioned cell lines are treated as described by Emons, G., et al., 1993, supra, and Irmer, G., 1995, supra, with a concentration of the GnRH peptide antagonist Ac-D-Nal(2)-D-4-ClPhe-D-Pal-Ser-1-MePal-D-IsopropylLys-Leu-IsopropylLys-Pro-D-AlaNH2 (also known as Ant 135-25; the Mepal portion is known as 1-Methyl-3-[3′-pyridyl]-alanine), Teverelix (also known as Antarelix®), Cetrorelix (also known as Cetrotide®), Abarelix (also known as Plenaxis®), D-63153 (also known as Ozarelix®), acyline, azaline B, antide (also known as Iturelix®), Degarelix (FE200486), Ganirelix, Nal-Glu, Orntide (also known as Ornirelix®), Elagolix, or with antagonist peptidomimetic ((2S)-2-[5-[2-(2-azabicyclo[2,2,2]oct-2-yl)-1,1-dimethyl-2-oxoethyl]-2-(3,5-dimethylphenyl)-1H-indol-3-yl]-N-(2-pyridin-4-ylethyl-)propan-1-amine (also known as “IN3”).
In another embodiment, the cell lines used above were each additionally treated with a second GnRH antagonist, namely one of the GnRH antagonists Cetrorelix®, Ant 135-25, IN3, degarelix, Antarelix®, Antide®, and Ramorelix® or alternatively with one of the GnRH antagonists that have been disclosed in U.S. Pat. Nos. 6,939,88, 6,200,957, 5,296,468, 4,851,385, 7,361,633, 7,288,517, WO/2009/106597 or PCT/EP2009/052326, U.S. Pat. Nos. 5,480,969, 5,198,533, or UK Patent GB 2 246782 B, wherein these additional treatment procedures were carried out in a manner similar to those reported in Emons et al., supra, using SB 75 (Cetrorelix®). […]

For assay [2], the system named is malignant gliomas U-87MG and U-373MG. The experiment in a line: In vivo study with tumor-implanted nude mice (Example 4). The note with it: daily dosages. On the procedure:
An effect of the treatment of tumor-implanted nude mice (Pinski et al., supra) each with one of the GnRH agonists Buserelin, Triptorelin, Goserelin, and Leuprorelin and each with one of the GnRH antagonists Cetrorelix® (SB-75), Antarelix®, Antide®, and Ramorelix® on the growth of malignant gliomas U-87MG and U-373MG was carried out using daily dosages and controls in nude mice using analysis techniques described for the determination of the efficacy of similar peptides in Pinski et al., supra.

For a further assay, the system named is Glioblastoma multiforme. The experiment in a line: Phase I study with Buserelin (Example 5). The assay is classed as in vivo, human. The note with it: intravenous or intranasal, permanent medication. On the procedure: Patients with non-resectable Glioblastoma multiforme following microsurgical resection and/or after external conventional radiotherapy and/or brachytherapy; or patients with a diffusely, intraaxially growing brain tumor, multifocal tumor spreading or presence of a gliomatosis cerebri, respectively; a tumor volume of more than 65 ml; or a minimal tumor diameter of more than 5 cm, were each treated with the GnRH agonist Buserelin, which was administered intravenously or alternatively by intranasal application as a permanent medication as described by Klijn, J. G. M., et al., 1982, The Lancet, May 19, […].

In assay [3] the test system is small cell lung carcinoma cell lines NCI-H1688, NCI-H1417, NCI-H1672, NCI-H1836, DMS-79, DM-553, DMS-114, SW-1271, NCI-H2227, NCI-HI1963, SHP-77 and H-69 AR. As to the kind of experiment: Proliferation assay on small cell lung carcinoma cell lines (Example 3). The assay is classed as cell-based, human. Particulars: small cell lung carcinoma cell lines treated with the substance. On the procedure:
In another embodiment, the small cell lung carcinoma cell lines NCI-H1688, NCI-H1417, NCI-H1672, NCI-H1836, DMS-79, DM-553, DMS-114, SW-1271, NCI-H2227, NCI-HI1963 and SHP-77 in addition to the multidrug-resistant small cell lung carcinoma cell line H-69 AR, are cultured as described above and then treated as described by Emons, G., et al., 1993, supra, and Irmer, G., 1995, supra, with various concentrations of the GnRH agonists (D-Lys6)-GnRH, Lutrelin, Histrelin, Nafarelin, Azagly-Nafarelin, Deslorelin, Cystorelin, Decapeptyl, Gonadorelin, GnRH, D-Lys(6)-GnRH II, Lamprey GnRH II, (D-Lys6)-Lamprey GnRH, (D-Lys6)-Lamprey GnRH II and Lamprey GnRH III.
In another embodiment, the small cell lung carcinoma cell lines NCI-H1688, NCI-H1417, NCI-H1672, NCI-H1836, DMS-79, DM-553, DMS-114, SW-1271, NCI-H2227, NCI-HI1963 and SHP-77 in addition to the multidrug-resistant small cell lung carcinoma cell line H-69 AR, are cultured as described above for the above-mentioned cell lines, and then treated as described by Emons, G., et al., 1993, supra, and Irmer, G., 1995, supra, with a concentration of the GnRH antagonist Cetrorelix (also known as Cetrotide®) or with a GnRH peptide antagonist Ac-D-Nal(2)-D-4-ClPhe-D-Pal-Ser-1-MePal-D-IsopropylLys-Leu-IsopropylLys-Pro-D-AlaNH2 wherein Mepal is 1-Methyl-3-[3′-pyridyl]-alanine or Ant 135-25 (also known as Ac-D-Nal(2)-D-4-Cl-Phe-D-Pal-Ser-1-MePal-D-IsopropylLys-Leu-IsopropylLys-Pro-D-AlaNH2), Teverelix (also known as Antarelix®), Cetrorelix (also known as Cetrotide®), Abarelix (also known as Plenaxis®), D-63153 (also known as Ozarelix®), acyline, azaline B, antide (also known as Iturelix®), Degarelix (FE200486), Ganirelix, Nal-Glu, Orntide (also known as Ornirelix®) or with antagonist peptidomimetic ((2S)-2-[5-[2-(2-azabicyclo[2,2,2]oct-2-yl)-1,1-dimethyl-2-oxoethyl]-2-(3,5-dimethylphenyl)-1H-indol-3-yl]-N-(2-pyridin-4-ylethyl-)propan-1-amine (also known as “IN3”).

In the next assay the test system is U-87MG cells. The assay is classed as cell-based, human. On the procedure:
U-87MG cells were plated at a density of 1400 cells/cm^2 in […] in standard culture medium. Cells were allowed to attach and start growing for 3 days; the seeding media were then changed to experimental media. Cells were treated for 7 days with ZOLADEX® (10^−10-10^−6 M); medium was changed every two days. Following treatment, cells were collected and counted by hemocytometer. Data obtained from three independent experiments were analyzed according to the Dunnett's test after one-way ANOVA.

For assay [4], the system named is human melanoma cell line MV3. As to the kind of experiment: Proliferation assay using the human malignant melanoma cell line MV3. Type of assay: cell-based. On the procedure:
The human melanoma cell line MV3 was cultured (in long-term culture in RPMI medium (Gibco Co.) with 1% Penstrep and 10% of heat-inactivated fetal calf serum). The proliferation assay was carried out with 6×10^2 cells per well in 96 well plates. First, the cells were removed from the culture flask with a […] and then washed in standard PBS solution. Following centrifugation for 10 minutes (1200 g) the supernatant was discarded and the pellet resuspended in 1 ml medium. An aliquot of 20 μl of the cells was diluted with trypan blue to obtain an 1:20 dilution. Trypan blue stains the necrotic cells. Then counting was performed in a Neubauer counting chamber. Evaluation was performed by daily determination of 4 values starting at day 0 and multiplying the mean values of the cell counts×10^4× dilution factor 20 to obtain the cell count. During the 5 days, the measurement was performed 4× daily in a Biomec spectrophotometer.
The method for determination of tumor cell proliferation is described in Lü, H. Q., et al., 1996, Journal of Cancer Research and Clinical Oncology, 122, 335-342.
The cell line was treated with (Gly-OH10)-LHRH, the LHRH hormone (FIG. 3) (Sigma Chemical Co., No. L8008) or Triptorelin, an LHRH agonist (FIG. 2) (Sigma Chemical Co., No. L9761) or Antide®, a LHRH antagonist (FIG. 1) (Sigma Chemical Co., No. A8802).
Using concentrations of 10^−4 M, 10^−5 M, and 10^−6 M, with the medium serving as a negative control from day 4 on, the following results were obtained: […]

The values that follow come from patent US8962558B2, “Methods for reducing GnRH-positive tumor cell proliferation using the GnRH antagonist IN3” (priority 1997, dated 2015).

Square brackets hold non-standard residues; d marks the D form. Peptide text beside a SMILES is read from it. dPhe(4-Cl) = N[C@H](Cc1ccc(Cl)cc1)C(=O)O; d2Nal = N[C@H](Cc1ccc2ccccc2c1)C(=O)O; dCit = NC(=O)NCCC[C@@H](N)C(=O)O; d3Pal = N[C@H](Cc1cccnc1)C(=O)O

As to `CCNC(=O)[C@@H]1CCCN1C(=O)[C@H](CCCNC(=N)N)NC(=O)[C@H](CC(C)C)NC(=O)[C@@H](COC(C)(C)C)NC(=O)[C@H](Cc1ccc(O)cc1)NC(=O)[C@H](CO)NC(=O)[C@H](Cc1c[nH]c2ccccc12)NC(=O)[C@H](Cc1cnc[nH]1)NC(=O)[C@@H]1CCC(=O)N1` [Buserelin], the “anti-proliferative effects in tumor cells” value (“anti-proliferative effects” for short) in assay [1] was “Significant anti-proliferative effects”. Moreover, the “growth of malignant gliomas” value in assay [2] is recorded as “Significant growth-inhibiting effects”. Also, the recidivation-free survival entry with Glioblastoma multiforme is given as “longer than that described following Tamoxifen treatment of glioma”.

In the case of `CC(=O)N[C@H](Cc1ccc2ccccc2c1)C(=O)N[C@H](Cc1ccc(Cl)cc1)C(=O)N[C@H](Cc1cccnc1)C(=O)N[C@@H](CO)C(=O)N[C@@H](Cc1ccc(O)cc1)C(=O)N[C@H](CCCNC(N)=O)C(=O)N[C@@H](CC(C)C)C(=O)N[C@@H](CCCNC(=N)N)C(=O)N1CCC[C@H]1C(=O)N[C@H](C)C(N)=O` [Cetrorelix®] (Ac-[d2Nal][dPhe(4-Cl)][d3Pal]SY[dCit]LRP[dA]-NH2), the “anti-proliferative effects” value in assay [1] and in assay [3] was “Significant anti-proliferative effects” each time. Further, the “anti-proliferative effect compared with Cetrorelix only” value in assay [1] was “significantly stronger anti-proliferative effect”. Further, the “growth of malignant gliomas” value in assay [2] is recorded as “Significant growth-inhibiting effects”. Also, in the assay with U-87MG cells (10^−5 M), the “inhibition of proliferation compared to controls” value is recorded as 30%. The molecule further gave a decrease of proliferation with U-87MG cells (10^−6 M) of 28%.

As to `CCNC(=O)[C@@H]1CCCN1C(=O)[C@H](CCCNC(=N)N)NC(=O)[C@H](CC(C)C)NC(=O)[C@@H](CC(C)C)NC(=O)[C@H](Cc1ccc(O)cc1)NC(=O)[C@H](CO)NC(=O)[C@H](Cc1c[nH]c2ccccc12)NC(=O)[C@H](Cc1c[nH]cn1)NC(=O)[C@@H]1CCC(=O)N1` [LEUPRORELIN®], the “anti-proliferative effects” value in assay [1] is “Significant anti-proliferative effects”. The “growth of malignant gliomas” value in assay [2] is “Significant growth-inhibiting effects”.

For “(Gly-OH10)-LHRH (QHWSYGLRPG; Gonadoliberin-1 C-terminal free acid; UniProt P01148 24-33, looked up) [LHRH hormone, the LHRH hormone (Sigma Chemical Co., No. L8008)]”, the “function of the LHRH hormone on MV3 growth in vitro” value in assay [4] is on record as “positive growth factor”.

In the case of “Ac-D-Nal(2)-D-4-ClPhe-D-Pal-Ser-1-MePal-D-IsopropylLys-Leu-IsopropylLys-Pro-D-AlaNH2 [Ant 135-25]”, in assay [1], the “anti-proliferative effects” value is “Significant anti-proliferative effects” and the “anti-proliferative effect compared with Cetrorelix only” value is on record as “significantly stronger anti-proliferative effect”. Further, the “anti-proliferative effects” value in assay [3] was “Significant anti-proliferative effects”.

Regarding Antarelix®, the “anti-proliferative effects” value in assay [1] and in assay [3] was “Significant anti-proliferative effects” throughout. The “anti-proliferative effect compared with Cetrorelix only” value in assay [1] is reported as “significantly stronger anti-proliferative effect”. Besides, the “growth of malignant gliomas” value in assay [2] is reported as “Significant growth-inhibiting effects”.

With Antide®, the “anti-proliferative effects” value in assay [1] and in assay [3] was “Significant anti-proliferative effects” each time. Also, the “anti-proliferative effect compared with Cetrorelix only” value in assay [1] was “significantly stronger anti-proliferative effect”. For the same molecule, the “growth of malignant gliomas” value in assay [2] is “Significant growth-inhibiting effects”. For the same molecule, the inhibition of proliferation is given as 15% in assay [4] (10^−4 M, from day 4 on); 35% in assay [4] (10^−5 M, from day 4 on); “no inhibition” in assay [4] (10^−6 M). For the same molecule, the “stimulation of the growth” value in assay [4] (10^−6 M) was found to be 40%.

For Nal-Glu, the “anti-proliferative effects” value in assay [1] and in assay [3] was “Significant anti-proliferative effects” each time.
